Source: patent US8853228B2, “Heterocyclic analogs of propargyl-linked inhibitors of dihydrofolate reductase” (University of Connecticut, priority 2011, dated 2014)
In brackets after ≈: the same amount, converted by molar mass. Where two headings read alike, the source gives them in different places.

Columns and labels:
ChDHFR-TS = ChDHFR-TS (Cryptosporidium hominis, UniProt Q27552); assay: ChDHFR enzyme inhibition assay; assay type: biochemical
Procedure: (§1) Enzyme and inhibitor were allowed to incubate for 5 min before adding dihydrofolate to initiate the reaction. Enzyme assays were performed at least four times. IC50 values and their standard deviations were calculated in the presence of varying concentrations of inhibitor near the IC50 concentration.
Compounds were evaluated in spectrophotometric enzyme assays using ChDHFR-TS and hDHFR. Inhibition constants (IC50) were measured (see Table 4). […] The compound abbreviations in Table 4 refer to the following compounds: […]

C. glabrata = assay: Antifungal assay (MIC, Alamar Blue); assay type: cell-based, Candida glabrata; details: for MIC (Cg): YM media
Procedure: Antifungal assays were performed using C. glabrata as a suspension in 50% glycerol at −78° C. For susceptibility testing, a streak of stock culture was made on SDA agar and grown at 30° C. for 48 h. One pure colony of the test organism was recovered from the plate, suspended in appropriate media and grown in a 5 mL shake flask culture. A sample of the shake flask culture was diluted to 1×10^5 cells/mL in media and added to 96-well test plates (100 μL per well) containing test compounds dispensed in DMSO (1 μL). Amphotericin and ketoconazole were used as controls. After an incubation period determined from the strain specific doubling time, Alamar Blue (10 μL) was added, allowed to incubate; each well was scored for dye reduction.
Several representative compounds were also evaluated in thymidine-depleted media. It has been shown that high levels of thymidine interfere with accurate susceptibility testing of antifolates. To compensate for this, antifolates are frequently evaluated in a controlled minimal media with a low thymidine concentration. […] In addition, the compounds were also evaluated for mammalian cell toxicity using MCF-10 and HepG2 cell lines. Cellular selectivity is reported as the IC50 value for the MCF-10 human cell line divided by the MIC value (μg/mL) (Table 8).

hDHFR = hDHFR (Homo sapiens (Human), UniProt P00374); assay: hDHFR enzyme inhibition assay; assay type: biochemical; details: read-out: IC50 (hDHFR)
Procedure: hDHFR: The gene for hDHFR was amplified using PCR from cDNA obtained from ATCC. The gene was inserted in a pET41 vector with a C-terminal histidine tag for affinity chromatography. The resulting construct was verified by sequencing. The hDHFR protein was expressed in E. coli and purified using a nickel affinity column.
as §1
(§2) Enzyme inhibition assays were performed by monitoring the rate of NADPH oxidation by the DHFR enzyme at an absorbance of 340 nm. Assays were performed in the presence of saturating concentrations of NADPH and initiated with dihydrofolate. All assays were completed at 25° C. in a buffer containing 20 mM TES pH 7.0, 50 mM KCl, 10 mM 2-mercaptoethanol, 0.5 mM EDTA and 1 mg/mL BSA. Inhibition was measured at least three times with inhibitor concentrations near the IC50 value and the average IC50 value is reported with a standard deviation.

CgDHFR = CgDHFR (Candida glabrata (strain ATCC 2001 / BCRC 20586 / JCM 3761 / NBRC 0622 / NRRL Y-65 / CBS 138) (Yeast) (Nakaseomyces glabratus), UniProt Q6FPH0); assay: biochemical; details: for Selectivity: Table 7, hDHFR vs CgDHFR
Description: CgDHFR: The gene coding CgDHFR was amplified by PCR from C. glabrata genomic DNA obtained from ATCC. The gene was inserted in a pET41 vector that includes a C-terminal histidine tag for nickel affinity chromatography. E. coli cells were transformed and the resulting plasmid was verified by sequencing. The protein was expressed in E. coli BL21(DE3) cells with isopropyl β-D-thiogalactoside induction. Following growth, the cells were lysed with BugBuster (Novagen) and centrifuged; the supernatant was loaded on a Ni-NTA column. The column was washed with 20 mM Tris (pH 8.0)/0.4 M NaCl and the protein was eluted using a gradient of 20 mM Tris (pH 8.0), 0.3 M NaCl, 20% glycerol, 0.1 mM EDTA, 2 mM DTT, 250 mM imidazole. Fractions containing CgDHFR were identified by SDS-PAGE, combined and desalted using a PD-10 column with a buffer containing 20 mM Tris pH 8.0, 20% glycerol, 0.1 mM EDTA and 2 mM DTT. The protein was concentrated to 13 mg/mL.
as §1

Streptococcus pyogenes = assay: Antibacterial MIC, broth microdilution with Alamar Blue; assay type: cell-based
Procedure: (§3) For susceptibility testing, 10 μL of glycerol stock was suspended in a 10 mL shake flask culture of chemically defined Isosensitest broth (Oxoid) supplemented with 2% w/v glucose. A sample of the shake flask culture was diluted to 1×10^6 cells/mL in media and added to 96-well test plates (100 μL per well) containing test compounds dispensed in DMSO (2 μL). After an incubation period (30° C.) determined from the strain specific doubling time, a 0.03% w/v aqueous solution of resazurin (10 μL) was added and the plates were allowed to incubate; each well was then scored for dye reduction.

S. aureus 13709 (MRSA) = assay: as above; assay type: cell-based, Staphylococcus aureus; details: for MIC MRSA: Table 6
Procedure: as §3

MCF-10 cells = assay: Mammalian cell toxicity, MCF-10; assay type: cell-based, human; details: cytotoxicity, Table 6
Procedure: Adherent cell lines were maintained in Eagle's Minimal Essential Media (Sigma-Aldrich, St. Louis, Mo., USA) with 2 mM glutamine and Earle's Balanced Salt Solution (HyClone, Logan, Utah, USA) adjusted to contain 1.5 g/L sodium bicarbonate, 0.1 mM non-essential amino acids, 1 mM sodium pyruvate and 10% fetal calf serum. Fetal calf serum used in these assays was lot matched throughout. […] Toxicity assays were conducted between passages 10-20. Target compound toxicity was measured by incubating the test compound with the cells for 4 h, washing the cells and finally treating the cells with Alamar Blue. After 12-24 h, the fluorescence of the reduced dye was measured. Fluorescence intensity as a function of test compound concentration was fit to the Fermi equation, using non-linear least squares regression analysis, to estimate IC50 values.

S. pyogenes DHFR = S. pyogenes DHFR (Streptococcus pyogenes, UniProt Q9A091); assay: S. pyogenes DHFR enzyme inhibition assay; assay type: biochemical; details: average of at least three measurements
Procedure: as §2

S. aureus DHFR = S. aureus DHFR (Staphylococcus aureus, UniProt P0A017); assay type: biochemical; details: average of at least three measurements
Procedure: as §2

[1] = Table 7, read-out: IC50 (CgDHFR)
[2] = Table 11, read-out: CgDHFR IC50
[3] = C. glabrata, Inact: not active at 2 mM (~600 μg/mL)
[4] = Table 4, read-out: IC50 (ChDHFR)

Sequence of ChDHFR-TS (Q27552 1-521): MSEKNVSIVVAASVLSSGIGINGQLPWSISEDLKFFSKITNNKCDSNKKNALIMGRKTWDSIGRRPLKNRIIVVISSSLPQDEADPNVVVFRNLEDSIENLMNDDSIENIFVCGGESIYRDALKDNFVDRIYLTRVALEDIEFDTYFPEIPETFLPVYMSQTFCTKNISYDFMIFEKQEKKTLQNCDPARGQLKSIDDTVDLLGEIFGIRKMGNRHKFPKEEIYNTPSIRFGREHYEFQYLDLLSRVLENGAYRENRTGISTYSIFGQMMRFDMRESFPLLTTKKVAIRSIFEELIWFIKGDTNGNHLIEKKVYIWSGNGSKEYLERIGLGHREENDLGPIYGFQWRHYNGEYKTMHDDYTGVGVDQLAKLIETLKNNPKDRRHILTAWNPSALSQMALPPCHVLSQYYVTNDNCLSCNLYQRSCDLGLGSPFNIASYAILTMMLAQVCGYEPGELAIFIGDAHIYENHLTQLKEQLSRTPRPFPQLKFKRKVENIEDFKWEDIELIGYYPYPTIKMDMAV
Sequence of hDHFR (P00374 whole entry): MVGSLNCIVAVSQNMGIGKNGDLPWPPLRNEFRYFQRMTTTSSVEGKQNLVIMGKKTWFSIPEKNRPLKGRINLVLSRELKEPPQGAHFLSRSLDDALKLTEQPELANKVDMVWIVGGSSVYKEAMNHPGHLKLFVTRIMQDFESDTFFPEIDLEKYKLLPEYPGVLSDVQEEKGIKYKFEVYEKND
Sequence of CgDHFR (Q6FPH0 1-217): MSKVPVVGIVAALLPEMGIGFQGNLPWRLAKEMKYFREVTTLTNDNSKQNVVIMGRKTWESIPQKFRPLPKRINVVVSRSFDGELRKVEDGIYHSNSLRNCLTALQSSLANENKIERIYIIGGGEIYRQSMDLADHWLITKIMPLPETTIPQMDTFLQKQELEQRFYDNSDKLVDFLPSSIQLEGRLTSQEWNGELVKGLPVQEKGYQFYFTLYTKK
Sequence of S. pyogenes DHFR (Q9A091 1-165): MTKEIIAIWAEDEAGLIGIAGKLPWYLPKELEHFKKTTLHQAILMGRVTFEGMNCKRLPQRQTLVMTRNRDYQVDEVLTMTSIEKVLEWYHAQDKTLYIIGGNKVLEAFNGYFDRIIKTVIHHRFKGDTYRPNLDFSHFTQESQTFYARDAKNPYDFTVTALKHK

Compound: COc1cc(C(C)c2cnc(N)nc2N)cc(OC)c1OC (racemic) [C7-methyl TMP (rac), reference compound]
- IC50 (ChDHFR-TS; read-out: IC50 against ChDHFR): 340000 nM

Compound: CCc1nc(N)nc(N)c1C#CC(C)c1cc(OC)cc(N2C[C@@H](C)O[C@@H](C)C2)c1 (mixture of isomers) [Compound 157]
- MIC (Cg) (C. glabrata; C. glabrata): 13 µg/mL (≈ 31.7 µM)
- IC50 (hDHFR; Table 7): 200 ± 4.5 nM
- Selectivity (CgDHFR): 5.0 ± 1
- IC50 (CgDHFR; [1]): 38 ± 2 nM

Compound: CCC(c1cc(OC)c(OC)c(OC)c1)c1cnc(N)nc1N (racemic) [C7-ethyl TMP (rac), reference compound]
- IC50 (ChDHFR-TS; read-out: IC50 against ChDHFR): 4000 nM

Compound: COc1cc(-c2cc(C)cc(C)c2)cc([C@@H](C)C#Cc2c(C)nc(N)nc2N)c1 [Compound 140]
- MIC S. pyogenes (Streptococcus pyogenes): 0.1 µg/mL (≈ 0.259 µM)
- MIC S. pyogenes (Streptococcus pyogenes; Table 6): 0.097 µg/mL (≈ 0.251 µM)
- MIC (Cg) (C. glabrata; C. glabrata): 3.1 µg/mL (≈ 8.02 µM)
- Antifungal activity MIC (C. glabrata; Table 11, C. glabrata): 3 µg/mL
- MIC S. aureus / MRSA (S. aureus 13709 (MRSA)): 5.8 µg/mL (≈ 15 µM)
- MIC MRSA (S. aureus 13709 (MRSA)): 5.76 µg/mL (≈ 14.9 µM)
- IC50 (MCF-10 cells): 47000 nM
- IC50 against CgDHFR (CgDHFR): subnanomolar
- IC50 (CgDHFR; [1]): 0.55 ± 0.3 nM
- IC50 (CgDHFR; [2]): 0.55 nM

Compound: COc1cc(C(C#Cc2c(C)nc(N)nc2N)OC)cc(OC)c1OC (stereo not shown) [Compound 8, 5-[3-methoxy-3-(3,4,5-trimethoxyphenyl)prop-1-yn-1-yl]-6-methylpyrimidine-2,4-diamine]
- Antifungal activity MIC (C. glabrata; [3]): Inact
- IC50 (CgDHFR; CgDHFR IC50, Table 3): 30 nM

Compound: COc1cc(-c2ccccc2C)ccc1C(C)C#Cc1c(C)nc(N)nc1N (stereo not shown) [Compound F2M, 5-[3-(3-methoxy-2′-methylbiphenyl-4-yl)but-1-yn-1-yl]-6-methylpyrimidine-2,4-diamine]
- IC50 (ChDHFR-TS; IC50 (ChDHFR), Table 4): 36 ± 0.6 nM
- Selectivity Ratio (IC50 ChDHFR/IC50 hDHFR) (ChDHFR-TS; Table 4): 77

Compound: COc1cc(-c2ccc(C)cc2)cc([C@@H](C)C#Cc2c(C)nc(N)nc2N)c1 [Compound 141]
- IC50 (S. pyogenes DHFR): 350 ± 44 nM
- MIC S. pyogenes (Streptococcus pyogenes; Table 6): 0.024 µg/mL (≈ 0.0644 µM)
- MIC (Cg) (C. glabrata; C. glabrata): 1.5 µg/mL (≈ 4.03 µM)
- Antifungal activity MIC (C. glabrata; Table 11, C. glabrata): 1.5 µg/mL
- IC50 (S. aureus DHFR): 410 ± 36 nM
- MIC MRSA (S. aureus 13709 (MRSA)): 0.71 µg/mL (≈ 1.91 µM)
- IC50 (MCF-10 cells): 55000 nM
- IC50 against CgDHFR (CgDHFR): subnanomolar
- IC50 (CgDHFR; [1]): 0.6 ± 0.3 nM
- IC50 (CgDHFR; [2]): 0.6 nM

Compound: COc1cc(-c2c(C)cccc2C)ccc1C(C)C#Cc1c(C)nc(N)nc1N (stereo not shown) [Compound F26M, 5-[3-(3-methoxy-2′6′-dimethylbiphenyl-4-yl)but-1-yn-1-yl]-6-methylpyrimidine-2,4-diamine]
- IC50 (hDHFR; Table 4): 3370 ± 15 nM
- Selectivity Ratio (IC50 ChDHFR/IC50 hDHFR) (ChDHFR-TS; Table 4): 455
- IC50 (ChDHFR-TS; [4]): 7.4 ± 1.9 nM

Compound: COc1cc(C(C)C#Cc2c(C)nc(N)nc2N)cc(N2CCN(C)CC2)c1 (stereo not shown) [Compound 158]
- MIC (Cg) (C. glabrata; C. glabrata): 95 µg/mL (≈ 250 µM)
- IC50 (hDHFR; Table 7): 280 ± 17 nM
- Selectivity (CgDHFR): 9 ± 1
- IC50 (CgDHFR; [1]): 30 ± 3 nM

Compound: CN(Cc1cnc2nc(N)nc(N)c2n1)c1ccc(C(=O)N[C@@H](CCC(=O)O)C(=O)O)cc1 [methotrexate, (S)-2-(4-(((2,4-diaminopteridin-6-yl)methyl)methylamino)benzamido)pentanedioic acid, reference compound]
- IC50 (ChDHFR-TS; IC50 against ChDHFR): 23 nM

Compound: COc1ccc(OC)c(CC#Cc2cnc(N)nc2N)c1 [Compound 9]
- Antifungal activity MIC (C. glabrata; [3]): 72 µg/mL
- IC50 (CgDHFR; Table 3, read-out: CgDHFR IC50): 21 nM
- IC50 (CgDHFR; read-out: IC50 against CgDHFR): ≤ 25 nM

Compound: COc1cc(-c2ccccc2C)cc(C(C)C#Cc2c(C)nc(N)nc2N)c1 (stereo not shown) [Compound D6M, 5-[3-(5-methoxy-6′-methylbiphenyl-3-yl)but-1-yn-1-yl]-6-methylpyrimidine-2,4-diamine]
- IC50 (ChDHFR-TS; [4]): 2.1 ± 0.3 nM

Compound: COc1cc(C(O)C#Cc2cnc(N)nc2N)cc(OC)c1OC (stereo not shown) [Compound 3, 3-(2,4-diaminopyrimidin-5-yl)-1-(3,4,5-trimethoxyphenyl)prop-2-yn-1-ol]
- MIC (C. glabrata; Nakaseomyces glabratus, C. glabrata, Inact: not active at 2 mM (~600 μg/mL), read-out: Antifungal activity MIC): 328 µg/mL (≈ 993 µM)
- IC50 (CgDHFR; Table 3, read-out: CgDHFR IC50): 2700 nM

Compound: COc1cc(-c2c(C)cccc2C)cc(C(C)C#Cc2c(C)nc(N)nc2N)c1 (stereo not shown) [Compound D26M, 5-[3-(5-methoxy-2′6′-dimethylbiphenyl-3-yl)but-1-yn-1-yl]-6-methylpyrimidine-2,4-diamine]
- IC50 (ChDHFR-TS; [4]): 2.1 ± 0.5 nM

Compound: COc1cc(C(C)C#Cc2cnc(N)nc2N)cc(OC)c1OC (stereo not shown) [Compound 2, 2,4-Diamino-5-(3-(3,4,5-trimethoxyphenyl)but-1-ynyl)pyrimidine]
- Antifungal activity MIC (C. glabrata; [3]): Inact
- IC50 (CgDHFR; Table 3, read-out: CgDHFR IC50): 36 nM

Compound: CCc1nc(N)nc(N)c1C#CCc1cc(OC)ccc1OC [Compound 11]
- Antifungal activity MIC (C. glabrata; [3]): 78 µg/mL
- IC50 (CgDHFR; Table 3, read-out: CgDHFR IC50): 8.2 nM
- IC50 (CgDHFR; read-out: IC50 against CgDHFR): ≤ 25 nM

Compound: COc1ccc(OC)c(CC#Cc2c(C)nc(N)nc2N)c1 [Compound 10]
- Antifungal activity MIC (C. glabrata; [3]): 56 µg/mL
- IC50 (CgDHFR; Table 3, read-out: CgDHFR IC50): 32 nM

Compound: COc1cc(C(O)C#Cc2c(C)nc(N)nc2N)cc(OC)c1OC (stereo not shown) [Compound 7, 3-(2,4-diamino-6-methylpyrimidin-5-yl)-1-(3,4,5-trimethoxyphenyl)prop-2-yn-1-ol]
- Antifungal activity MIC (C. glabrata; [3]): Inact
- IC50 (CgDHFR; CgDHFR IC50, Table 3): 39 nM

Compound: COc1cc(C(C#Cc2cnc(N)nc2N)OC)cc(OC)c1OC (stereo not shown) [Compound 4, 5-[3-methoxy-3-(3,4,5-trimethoxyphenyl)prop-1-yn-1-yl]pyrimidine-2,4-diamine]
- Antifungal activity MIC (C. glabrata; [3]): Inact
- IC50 (CgDHFR; Table 3, read-out: CgDHFR IC50): 450 nM

Compound: COc1cc(-c2c(C(C)C)cccc2C(C)C)cc(C(C)C#Cc2c(C)nc(N)nc2N)c1 (stereo not shown) [Compound D26I, 5-[3-(5-methoxy-2′6′-diisopropylbiphenyl-3-yl)but-1-yn-1-yl]-6-methylpyrimidine-2,4-diamine]
- IC50 (ChDHFR-TS; [4]): 10 nM

Compound: COc1cc(-c2ccccc2)cc([C@H](C)C#Cc2c(C)nc(N)nc2N)c1 (single isomer, unassigned) [D (S), 5-[3-(5-methoxy-biphenyl-3-yl)but-1-yn-1-yl]-6-methylpyrimidine-2,4-diamine]
- IC50 (ChDHFR-TS; IC50 (ChDHFR), Table 4): 30 nM
